Drawing on the METLIN SMRT retention time set (Domingo-Almenara et al. 2019), this text covers RP-LC retention time for 80 molecules.

The series in a line: gradient 5% acetonitrile 3 min, to 50% in 2 min, to 85% in 15 min, held 3 min, 100 µL/min. As to conditions: column: Zorbax Extend-C18 2.1 x 50 mm; eluents: water / acetonitrile, 0.1% formic acid. The method in brief:
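Standards, all pure, were combined into mixtures of ~100 molecules and run at 100 μL/min on a Zorbax Extend-C18 column (2.1 × 50 mm, 1.8 μm) with water and acetonitrile, each containing 0.1% formic acid. A coupled quadrupole time-of-flight mass spectrometer operated in positive and negative ionization mode. Retention time values come from computationally picked adduct peaks, each inspected manually.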
Regarding `O=C(c1csc(N2CCN(c3ccccc3)CC2)n1)N1CCC(N2CCCCC2)CC1`, the RP-LC retention time stood at 668 s.

Molecule `COc1cccc(-c2nnc(Cc3nc(-c4ccc(C)c(C)c4)no3)o2)c1` had an RP-LC retention time of 1120 s.

`Cc1nc2n(c(=O)c1C)CCN2CC(=O)NCc1ccco1` returned an RP-LC retention time of 596 s.

`CCOC(=O)C1CCN(c2cc3c(cc2NC(=O)CC(C)C)n(C)c(=O)c(=O)n3C)CC1` gave an RP-LC retention time of 822 s.

As for `O=C(CC1CCN(C(=O)c2cc3cc(Cl)ccc3[nH]2)CC1)NCc1ccco1`, the RP-LC retention time worked out at 802 s.

`CC1CCN(S(=O)(=O)c2nn(C)cc2C(=O)NCc2cc(F)cc(F)c2)CC1`: the RP-LC retention time came to 969 s.

The molecule `O=C(NCc1cc(F)cc(F)c1)C1CCCN(c2nc3ccsc3c(=O)n2Cc2ccccc2)C1` (stereo not given) registered an RP-LC retention time of 1050 s.

Molecule `O=C(Nc1cccn2c(C3CCC3)nnc12)c1ccc(Cl)s1` showed an RP-LC retention time of 871 s.

`O=C(NCC1CCOCC1)Nc1ccc(Cl)cc1F` had an RP-LC retention time of 764 s.

As for `CN(c1nccn2c(=O)n(CC(=O)Nc3ccc(F)cc3)nc12)C1CCCCC1`, the RP-LC retention time worked out at 749 s.

For the molecule `COc1ccc(-c2cc(C(=O)Nc3ccc(Cl)cc3)nn2C2CCS(=O)(=O)C2)cc1` (stereo not given), the RP-LC retention time worked out at 1020 s.

Take `Cc1ccc(CC(=O)NCc2c(C)noc2C)cc1`: the RP-LC retention time came out at 742 s.

As to `COc1ccc(-c2noc(C3CC(=O)N(c4ccc(F)cc4)C3)n2)cc1` (stereo not given), the RP-LC retention time amounted to 912 s.

On to `CCN(CC)CCNC(=O)Cn1c2ccccc2c2cnn(C)c(=O)c21`, for which the RP-LC retention time is 599 s.

For `O=C(CN1CCN(Cc2ccc(F)cc2)C1=O)NC1CCN(Cc2ccccc2)CC1`, the RP-LC retention time was determined as 618 s.

As to `Cc1ccc(C(=O)Nc2ccc3c(N4CCCCC4)ncnc3c2)s1`, the RP-LC retention time was 695 s.

On to `COc1ccc(-c2noc(N3CCC(C(=O)NC4CC4)CC3)n2)cc1OC`, for which the RP-LC retention time turned out to be 690 s.

`CCCCN(C)Cc1nc2nc(C)cc(N3CCOCC3)n2n1` gave an RP-LC retention time of 582 s.

Turning to `CCC(C)n1c(=O)c2ccccc2n(Cc2nc(-c3ccc(C(F)(F)F)cc3)no2)c1=O` (stereo not given), the RP-LC retention time is 1290 s.

`COc1ccc(-c2noc(-c3c(SC)nn(CC(=O)Nc4ccccc4)c3N)n2)cc1` gave an RP-LC retention time of 934 s.

Molecule `CC(C)(C)c1noc(-c2ccnc(-n3cnc(C(=O)N4CCc5ccccc5C4)c3)c2)n1` gave an RP-LC retention time of 1080 s.

In turn, `COc1ccc(-c2nnc(N3CCC(C(=O)NCCC(C)C)CC3)o2)cc1` showed an RP-LC retention time of 838 s.

In turn, `CCS(=O)(=O)N1CCCc2cc(C(=O)NC3CCCCCC3)ccc21` returned an RP-LC retention time of 956 s.

In turn, `CC(=O)N1CCc2ccccc2C1C(=O)NCc1ccc(Br)cc1` (stereo not given) came in with an RP-LC retention time of 835 s.

Consider `COc1ccc(CN(C)Cc2cc(=O)n3cc(Cl)ccc3n2)cc1`, for which the RP-LC retention time came out at 624 s.

`Nc1cccc(-c2nccnc2N2CCCC2)c1` registered an RP-LC retention time of 595 s.

The molecule `COc1cccc(NC(=O)Nc2ccc(CC(N)=O)cc2)c1OC` registered an RP-LC retention time of 636 s.

For the molecule `c1coc(CN2CC(Oc3ccc(-c4noc(C5CC5)n4)cc3)C2)c1`, the RP-LC retention time worked out at 684 s.

The molecule `CCN1c2ccc(C)cc2C(=O)NC12CCN(C(=O)c1ccc3c(c1)OCO3)CC2` came in with an RP-LC retention time of 788 s.

For `Cc1c(S(=O)(=O)N2CCC(C)CC2)c(C)n(C)c1-c1nnc(C2CCC2)o1`, the RP-LC retention time stood at 1100 s.

For the molecule `CC(C)NC(=O)c1ccc(OCC2CCCN2C(=O)c2ccc(F)c(F)c2)cc1` (stereo not given), the RP-LC retention time came to 862 s.

In turn, `Cc1cccc(NC(=O)Nc2ccc(-c3cccc4[nH]nc(N)c34)cc2)c1` showed an RP-LC retention time of 789 s.

In the case of `CCc1ccccc1NS(=O)(=O)c1ccc2c(c1)CCCC(=O)N2`, the RP-LC retention time turned out to be 756 s.

`O=C(Nc1ccccc1F)N1C[C@H]2C[C@H](C1)[C@H]1CCCC(=O)N1C2` gave an RP-LC retention time of 627 s.

For the molecule `CC(C)(Cc1c[nH]c2ccc(Cl)cc12)NCCOc1ccccc1OCC1CC1`, the RP-LC retention time is 953 s.

`Cc1ccc(Nc2c(-c3ccc(N(C)C)cc3)nc3cnccn23)cc1Br` registered an RP-LC retention time of 990 s.

In turn, `Cc1ccc(C2=NC3(CCN(C(=O)Cc4ccccc4C)CC3)ON2)cc1` registered an RP-LC retention time of 933 s.

Turning to `CCCn1cc(CCNC(=O)Nc2c(C)cccc2C)c2cccnc21`, the RP-LC retention time amounted to 736 s.

In turn, `COc1ccc(C(=O)N2CCCN(c3nnc4ccc(Cl)cn34)CC2)cn1` gave an RP-LC retention time of 579 s.

For `Cc1cc(=O)n(CC(=O)Nc2cccc(C(F)(F)F)c2)c(N2CCOCC2)n1`, the RP-LC retention time came to 754 s.

In turn, `O=C(Cn1cnc2nc(N3CCOCC3)ncc2c1=O)NCc1cccc(C(F)(F)F)c1` returned an RP-LC retention time of 687 s.

`COc1ccc(C)cc1NC(=O)CCc1cccc2[nH]ccc12`: the RP-LC retention time came out at 942 s.

The molecule `CCOC(=O)c1c(C)c(CCC(=O)NCCN2CCN(C)CC2)n(C)c1C` showed an RP-LC retention time of 596 s.

Regarding `CCCn1c(CCNC(=O)c2ccc(C)cc2)nc2cccnc21`, the RP-LC retention time turned out to be 668 s.

For the molecule `CC1=C(c2cccc(Cl)c2)S(=O)(=O)N=C1N1CCCN(C(=O)CC(C)C)CC1`, the RP-LC retention time turned out to be 868 s.

Consider `Cc1cc(C)cc(NC(=O)N2CCC(N3CCN(Cc4ccccc4)C(=O)C3=O)CC2)c1`, for which the RP-LC retention time amounted to 740 s.

In turn, `COC(=O)c1c(NCc2ccccc2OC)c2cccc(Cl)c2[nH]c1=O` returned an RP-LC retention time of 820 s.

For `CCCc1nc2ccc(CCC(=O)NCc3ccc(F)cc3)cc2[nH]1`, the RP-LC retention time is 624 s.

Take `COc1cccc(CNC(=O)C2(C)Oc3cccnc3N(C)C2=O)c1` (stereo not given): the RP-LC retention time stood at 748 s.

Regarding `O=C(NCCC1=CCCCC1)C(=O)NCc1ccsc1`, the RP-LC retention time turned out to be 894 s.

Take `CCN1C(=O)c2cccnc2Sc2cc(NC(=O)c3ccccn3)ccc21`: the RP-LC retention time stood at 802 s.

For `CN1C(=O)[C@H]2CN(Cc3ccccc3)C[C@H]2C1=O`, the RP-LC retention time stood at 546 s.

`Cc1ccc(C)c(NC(=O)N2CCC(c3nc(C(=O)N4CCOCC4)c(C)o3)CC2)c1`: the RP-LC retention time worked out at 712 s.

Molecule `COc1ccc(-c2cc(NS(=O)(=O)c3cnc[nH]3)n(C3CCS(=O)(=O)C3)n2)cc1` (stereo not given) returned an RP-LC retention time of 649 s.

`O=C(Nc1ccc(F)cc1F)C1CCN(S(=O)(=O)c2cc(-c3noc(C4CC4)n3)cs2)CC1` yielded an RP-LC retention time of 997 s.

In turn, `COc1ccc(-c2n[nH]c3c2C(c2ccc(OC)cc2OC)NC3=O)cc1` (stereo not given) showed an RP-LC retention time of 736 s.

As to `Cc1ccc(C)c(S(=O)(=O)Nc2cnc(N3CCNCC3)c(C(=O)NC3CCCC3)c2)c1`, the RP-LC retention time came out at 621 s.

As to `Cc1nc(C)c(-c2nnc(NC(=O)NCc3cccs3)o2)s1`, the RP-LC retention time was found to be 672 s.

In turn, `CCC1(C(=O)NCc2ccc(Cl)cc2)CCCCC(=O)N1` (stereo not given) displayed an RP-LC retention time of 738 s.

On to `Fc1ccc(-c2nnc(Cc3nc(-c4ccccc4)no3)o2)cc1`, for which the RP-LC retention time came to 992 s.

In turn, `N#Cc1ccc(-c2nc(-c3ccc4c(c3)nnn4CCC(=O)N3CCOCC3)no2)cc1` displayed an RP-LC retention time of 786 s.

`COc1cc(C(=O)N2CCC(C(=O)NCCc3cscn3)CC2)cc(OC)c1OC` showed an RP-LC retention time of 631 s.

In turn, `Cc1ccc(CNC(=O)CN2C(=O)CCCc3cc(S(=O)(=O)N4CCC(C)CC4)ccc32)cc1` came in with an RP-LC retention time of 961 s.

`Cc1cc(C)c2c(n1)SCCN2C(=O)CCC(=O)NCc1ccc(Cl)cc1` had an RP-LC retention time of 696 s.

The molecule `CC1(C(=O)NC2CCCCC2)Cn2c(ccc2-c2ccco2)C(=O)N1Cc1ccccn1` (stereo not given) showed an RP-LC retention time of 766 s.

Take `Cc1cc(C)n2c(Nc3ccccc3)c(-c3ccc(Br)cc3O)nc2n1`: the RP-LC retention time worked out at 1120 s.

As to `Cc1ccc(-n2nnc(C(=O)O)c2C)c(F)c1`, the RP-LC retention time is 705 s.

`Cc1ccc(C(=O)NCCc2nc3cccnc3n2C(C)C)cc1C` registered an RP-LC retention time of 695 s.

For the molecule `COc1ccc(-c2cc(N3CCN(C(=O)COc4ccc(C)cc4OC)CC3)ncn2)cc1`, the RP-LC retention time is 608 s.

In the case of `CCN1c2ccc(Cl)cc2C(=O)NC12CCN(C(=O)Nc1ccccc1OC)CC2`, the RP-LC retention time was found to be 895 s.

For the molecule `CCCN1CCN(CCCNC(=O)CCc2nc(N3CCCCC3)c3c(CC)noc3n2)CC1`, the RP-LC retention time was found to be 598 s.

With `CCCOc1nc2ccccc2nc1N1CCCC(C(=O)Nc2ccc(Cl)cc2)C1` (stereo not given), the RP-LC retention time was 1210 s.

Molecule `Cc1ccnc(N2CCC(C(=O)N3CCN(C(=O)c4ccco4)CC3)CC2)n1` registered an RP-LC retention time of 616 s.

With `COc1ccc(OC)c(S(=O)(=O)N2CCCC(C)(C(=O)NCc3cccc(F)c3)C2)c1` (stereo not given), the RP-LC retention time amounted to 916 s.

The molecule `COc1ccc(N2CCN(C(=O)C3CCCN(c4nnc(-n5cccc5)s4)C3)CC2)cc1` (stereo not given) returned an RP-LC retention time of 829 s.

Molecule `Cc1ccc(NC(=O)N2CCC(CCN)CC2)cc1F` came in with an RP-LC retention time of 612 s.

For the molecule `O=C(c1ccc(OCC2CCCN2C(=O)c2ccc(F)c(F)c2)cc1)N1CCCC1` (stereo not given), the RP-LC retention time was 779 s.

With `CCCOc1ccc(-c2cn3ccccc3n2)cc1[N+](=O)[O-]`, the RP-LC retention time was found to be 681 s.

The molecule `CN(C(=O)C1CCCN(c2ncnc3c2nc2n3CCCCC2)C1)c1cccc(Cl)c1` (stereo not given) returned an RP-LC retention time of 851 s.

`CCc1noc(NC(C)=O)c1-c1ccc(C)c(S(=O)(=O)Nc2ccc(F)cc2)c1` came in with an RP-LC retention time of 822 s.
